{"source": "patent US10906915B2", "about": "“Substituted pyrazoloazepin-4-ones and their use as phosphodiesterase inhibitors” (LEO Pharma A/S, priority 2016, dated 2021)", "note": "pIC50: −log10 of the molar value."}
{"molecular_target": "human PDE4D catalytic domain (UniProt no. Q08499) (Homo sapiens (Human), UniProt Q08499)", "sequence (Q08499 380-740 limits assumed)": "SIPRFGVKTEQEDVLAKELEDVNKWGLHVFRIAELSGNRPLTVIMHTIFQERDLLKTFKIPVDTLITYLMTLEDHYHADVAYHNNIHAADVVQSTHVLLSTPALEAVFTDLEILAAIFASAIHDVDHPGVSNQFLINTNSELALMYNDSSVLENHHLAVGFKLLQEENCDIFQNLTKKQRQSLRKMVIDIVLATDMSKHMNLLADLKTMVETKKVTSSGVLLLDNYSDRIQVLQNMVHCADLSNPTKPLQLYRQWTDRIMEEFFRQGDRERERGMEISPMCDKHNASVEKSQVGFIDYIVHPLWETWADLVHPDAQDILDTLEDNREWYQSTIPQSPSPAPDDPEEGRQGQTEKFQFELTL", "test": "PDE4 assay (TR-FRET, FAM-cAMP cleavage)", "format": "biochemical", "details": "human PDE4D catalytic domain; molar concentration giving 50% inhibition of substrate cleavage; read-out: PDE4 IC50 range", "outline": "(§1)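 Read-out is time-resolved FRET from Tb donor to FAM-AMP captured on trivalent-metal nanoparticles added to stop the reaction. Substrate was a mix of plain and FAM-labelled cAMP, cleaved by human PDE4D catalytic domain ([…]) with titrated compound; IC50 ranges (nM) versus controls.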"}
{"smiles": "CCc1nn(CCCOC(=O)c2cc(OC)cc(C(F)(F)F)c2)c2c1C(=O)NCC1(CCOCC1)C2", "note": "[Example 120, 3-(3-ethyl-4-oxo-spiro[6,8-dihydro-5H-pyrazolo[4,3-c]azepine-7,4′-tetrahydropyran]-1-yl)propyl 3-methoxy-5-(trifluoromethyl)benzoate]", "pIC50": "> 7.00"}
{"smiles": "CCc1nn(C[C@@H](C)COC(=O)c2ccc(C(F)F)cc2)c2c1C(=O)NCC1(CCOCC1)C2", "note": "[Example 197, [(2R)-3-(3-ethyl-4-oxo-spiro[6,8-dihydro-5H-pyrazolo[4,3-c]azepine-7,4′-tetrahydropyran]-1-yl)-2-methyl-propyl] 4-(difluoromethyl)benzoate]", "pIC50": "> 7.00"}
{"smiles": "CCc1nn(C[C@@H](C)COC(=O)c2ccc(S(N)(=O)=O)cc2)c2c1C(=O)NCC1(CCOCC1)C2", "note": "[Example 215, [(2R)-3-(3-ethyl-4-oxo-spiro[6,8-dihydro-5H-pyrazolo[4,3-c]azepine-7,4′-tetrahydropyran]-1-yl)-2-methyl-propyl] 4-sulfamoylbenzoate]", "pIC50": "> 7.00"}
{"smiles": "CCc1nn(CCCOC(=O)c2cc(Cl)cc(OC)c2)c2c1C(=O)NCC1(CCOCC1)C2", "note": "[Example 88, 3-(3-ethyl-4-oxo-spiro[6,8-dihydro-5H-pyrazolo[4,3-c]azepine-7,4′-tetrahydropyran]-1-yl)propyl 3-chloro-5-methoxy-benzoate]", "pIC50": "> 7.00"}
{"smiles": "CCc1nn(CCCOC(=O)c2cccc(C(=O)N3CCCCC3)c2)c2c1C(=O)NCC1(CCOCC1)C2", "note": "[Example 156, 3-(3-ethyl-4-oxo-spiro[6,8-dihydro-5H-pyrazolo[4,3-c]azepine-7,4′-tetrahydropyran]-1-yl)propyl 3-(piperidine-1-carbonyl)benzoate]", "pIC50": "> 7.00"}
{"smiles": "CCc1nn(CCCOC(=O)c2c(F)cccc2OC)c2c1C(=O)NCC1(CCOCC1)C2", "note": "[Example 69, 3-(3-ethyl-4-oxo-spiro[6,8-dihydro-5H-pyrazolo[4,3-c]azepine-7,4′-tetrahydropyran]-1-yl)propyl 2-fluoro-6-methoxy-benzoate]", "pIC50": "> 7.00"}
{"smiles": "CCc1nn(CCCOC(=O)c2cccc(C(=O)NC)c2)c2c1C(=O)NCC1(CCOCC1)C2", "note": "[Example 151, 3-(3-ethyl-4-oxo-spiro[6,8-dihydro-5H-pyrazolo[4,3-c]azepine-7,4′-tetra-hydropyran]-1-yl)propyl 3-(methylcarbamoyl)benzoate]", "pIC50": "> 7.00"}
{"smiles": "CCc1nn(CCCOC(=O)c2ccc(C)cc2OC)c2c1C(=O)NCC1(CCOCC1)C2", "note": "[Example 60, 3-(3-ethyl-4-oxo-spiro[6,8-dihydro-5H-pyrazolo[4,3-c]azepine-7,4′-tetrahydropyran]-1-yl)propyl 2-methoxy-4-methyl-benzoate]", "pIC50": "> 7.00"}
{"smiles": "CCc1nn(C[C@@H](C)COC(=O)c2cc(C#N)ccc2F)c2c1C(=O)NCC1(CCOCC1)C2", "note": "[Example 183, [(2R)-3-(3-ethyl-4-oxo-spiro[6,8-dihydro-5H-pyrazolo[4,3-c]azepine-7,4′-tetrahydropyran]-1-yl)-2-methyl-propyl] 5-cyano-2-fluoro-benzoate]", "pIC50": "> 7.00"}
{"smiles": "CCc1nn(C[C@@H](C)COC(=O)c2ccc(C(F)(F)F)cc2F)c2c1C(=O)NCC1(CCOCC1)C2", "note": "[Example 221, [(2R)-3-(3-ethyl-4-oxo-spiro[6,8-dihydro-5H-pyrazolo[4,3-c]azepine-7,4′-tetrahydropyran]-1-yl)-2-methyl-propyl] 2-fluoro-4-(trifluoromethyl)benzoate]", "pIC50": "> 7.00"}
{"smiles": "CCc1nn(CCCOC(=O)c2ccccc2OC)c2c1C(=O)NCC1(CCOCC1)C2", "note": "[Example 30, 3-(3-ethyl-4-oxo-spiro[6,8-dihydro-5H-pyrazolo[4,3-c]azepine-7,4′-tetrahydropyran]-1-yl)propyl 2-methoxybenzoate]", "pIC50": "> 7.00"}
{"smiles": "CCc1nn(C[C@@H](C)COC(=O)c2cccc(C(F)(F)F)c2Cl)c2c1C(=O)NCC1(CCOCC1)C2", "note": "[Example 235, [(2R)-3-(3-ethyl-4-oxo-spiro [6,8-dihydro-5H-pyrazolo[4,3-c]azepine-7,4′-tetrahydropyran]-1-yl)-2-methyl-propyl] 2-chloro-3-(trifluoromethyl)benzoate]", "pIC50": "> 7.00"}
{"smiles": "CCc1nn(C[C@@H](C)COC(=O)c2cc(Cl)ccc2C(F)(F)F)c2c1C(=O)NCC1(CCOCC1)C2", "note": "[Example 239, [(2R)-3-(3-ethyl-4-oxo-spiro[6,8-dihydro-5H-pyrazolo[4,3-c]azepine-7,4′-tetrahydropyran]-1-yl)-2-methyl-propyl] 5-chloro-2-(trifluoromethyl)benzoate]", "pIC50": "> 7.00"}
{"smiles": "CCc1nn(C[C@@H](C)COC(=O)c2cc(F)cc(C#N)c2)c2c1C(=O)NCC1(CCOCC1)C2", "note": "[Example 182, [(2R)-3-(3-ethyl-4-oxo-spiro[6,8-dihydro-5H-pyrazolo[4,3-c]azepine-7,4′-tetrahydropyran]-1-yl)-2-methyl-propyl] 3-cyano-5-fluoro-benzoate]", "pIC50": "> 7.00"}
{"smiles": "CCc1nn(CCCOC(=O)c2cc(F)ccc2OC)c2c1C(=O)NCC1(CCOCC1)C2", "note": "[Example 68, 3-(3-ethyl-4-oxo-spiro[6,8-dihydro-5H-pyrazolo[4,3-c]azepine-7,4′-tetrahydropyran]-1-yl)propyl 5-fluoro-2-methoxy-benzoate]", "pIC50": "> 7.00"}
{"smiles": "CCc1nn(C[C@@H](C)COC(=O)c2cc(Cl)ccc2F)c2c1C(=O)NCC1(CCOCC1)C2", "note": "[Example 202, [(2R)-3-(3-ethyl-4-oxo-spiro[6,8-dihydro-5H-pyrazolo[4,3-c]azepine-7,4′-tetrahydropyran]-1-yl)-2-methyl-propyl] 5-chloro-2-fluoro-benzoate]", "pIC50": "> 7.00"}
{"molecular_target": "human PDE4D catalytic domain (UniProt no. Q08499) (Homo sapiens (Human), UniProt Q08499)", "test": "PDE4 assay (TR-FRET, FAM-cAMP cleavage)", "format": "biochemical", "details": "read-out: PDE4 IC50 range", "outline": "as §1"}
{"smiles": "CCc1nn(CC(C)(C)COC(=O)c2cccc(C(C)=O)c2)c2c1C(=O)NCC1(CCOCC1)C2", "note": "[Example 296, [3-(3-ethyl-4-oxo-spiro[6,8-dihydro-5H-pyrazolo[4,3-c]azepine-7,4′-tetrahydropyran]-1-yl)-2,2-dimethyl-propyl] 3-acetylbenzoate]", "pIC50": "> 7.00"}
{"smiles": "CCNC(=O)c1cccc(C(=O)OC[C@H](C)Cn2nc(CC)c3c2CC2(CCOCC2)CNC3=O)c1", "note": "[Example 265, [(2R)-3-(3-ethyl-4-oxo-spiro[6,8-dihydro-5H-pyrazolo[4,3-c]azepine-7,4′-tetrahydropyran]-1-yl)-2-methyl-propyl] 3-(ethylcarbamoyl)benzoate]", "pIC50": "> 7.00"}
{"smiles": "CCc1nn(CCCCOC(=O)c2ccc(C(C)=O)cc2)c2c1C(=O)NCC1(CCOCC1)C2", "note": "[Example 368, 4-(3-ethyl-4-oxo-spiro[6,8-dihydro-5H-pyrazolo[4,3-c]azepine-7,4′-tetrahydropyran]-1-yl)butyl 4-acetylbenzoate]", "pIC50": "6.30 to 7.00"}
{"smiles": "CCc1nn(CC(C)(C)COC(=O)c2ccc(C(=O)NC)cc2)c2c1C(=O)NCC1(CCOCC1)C2", "note": "[Example 329, [3-(3-ethyl-4-oxo-spiro[6,8-dihydro-5H-pyrazolo[4,3-c]azepine-7,4′-tetrahydropyran]-1-yl)-2,2-dimethyl-propyl] 4-(methylcarbamoyl)benzoate]", "pIC50": "> 7.00"}
{"smiles": "CCc1nn(CC2(COC(=O)c3ccc(Cl)cc3)COC2)c2c1C(=O)NCC1(CCOCC1)C2", "note": "[Example 361, [3-[(3-ethyl-4-oxo-spiro[6,8-dihydro-5H-pyrazolo[4,3-c]azepine-7,4′-tetrahydropyran]-1-yl)methyl]oxetan-3-yl]methyl 4-chlorobenzoate]", "pIC50": "> 7.00"}
